Results from publication PMC10871122, “Synthesis and In Vitro Evaluation as Potential Anticancer and Antioxidant Agents of Diphenylamine-Pyrrolidin-2-one-Hydrazone Derivatives” (International Journal of Molecular Sciences, 2023).

How the values were obtained:
[1] = tested on: melanoma cell; set-up: method as in PMID 21700700; settings: cited from earlier work
[2] = tested on: IGR39 spheroids (cancer cells with fibroblasts 1:1); assay: 3D culture: IGR39 spheroid size and viability (WST-1); format: cell-based, human; settings: for effect on spheroid growth / size: 5 and 10 µM, 8 days
Protocol: (§1) Spheroids were made of cancer cells combined with fibroblast in a 1:1 ratio to better represent the real tumor microenvironment.
(§2) The magnetic 3D Bioprinting method was utilized to form cancer cell spheroids as described elsewhere. In short, the cells at 70% confluency were incubated with Nanoshuttle (n3D Biosciences, Inc., Houston, TX, USA) for 8 h. After that, the cells were trypsinized, centrifuged and seeded into ultra-low attachment 96-well plate at a ratio of 1.5 × 10^3 cancer cells and 1.5 × 10^3 human fibroblasts/well. The plate was incubated for two days at 37 °C in a humidified atmosphere on a magnetic drive. Next, the medium with 5 and 10 µM of selected compounds was added. Photos of spheroids were taken every two days using an Olympus IX73 inverted microscope (OLYMPUS CORPORATION, Tokyo, Japan), and analysis of spheroid size was performed using ImageJ, version 1.53o (National Institutes of Health, Bethesda, MD, USA) and Microsoft Office Excel 2016 software (Microsoft Corporation, Redmond, WA, USA).
(§3) On the last day of experiment, 10 µL of WST-1 reagent (Sigma-Aldrich Co, St. Louis, MO, USA) was added to each well. Following 10-h incubation, 50 µL of liquid from each well was moved to another 96-well plate and the absorbance was measured at 460 and 530 nm.

[3] = tested on: PPC-1 cell migration; assay: 'Wound healing' migration assay, PPC-1; format: cell-based, human; settings: 72 h of incubation
Protocol: (§4) Cancer cells were seeded at a density of 6 × 10^4 cells/well in 24-well plates. After 48 h of incubation, a 100 µL pipette tip was used to make the scratch in each well. Following a single PBS wash, the fresh medium containing 2 and 5 µM of compounds 5, 6, 13, and 14 was added to the cells. As a negative control, medium containing 0.1% DMSO was employed.

[4] = tested on: human triple-negative breast cancer MDA-MB-231 cell line; assay: MTT cell viability assay, MDA-MB-231; format: cell-based; settings: 72 h; for EC50: Homo sapiens, MDA-MB-231
Excerpt: (§5) The human malignant melanoma cell line IGR39, human triple-negative breast cancer MDA-MB-231, and human pancreatic carcinoma cell line Panc-1 were obtained from the American Type Culture Collection (ATCC, Manassas, VA, USA). Human foreskin fibroblasts (HF) CRL-4001 were originally obtained from ATCC and kindly provided by Prof. Helder Santos (University of Helsinki, Finland). Primary prostate carcinoma PPC-1 cell line was kindly provided by Prof. Tambet Teesalu (University of Tartu, Estonia). All cell lines were cultured in Dulbecco’s Modified Eagle’s GlutaMAX medium (Gibco (Carlsbad, CA, USA)), supplemented with 10,000 U/mL penicillin, 10 mg/mL streptomycin (Gibco), and 10% fetal bovine serum (Gibco). Cell cultures were grown at 37 °C in a humidified atmosphere containing 5% CO2. They were used until the passage of 20.
(§6) The effect of synthesized compounds on cell viability was studied using 3-(4,5-dimethylthiazol-2-yl)-2,5-diphenyltetrazolium bromide (MTT; Sigma-Aldrich Co., St Louis, MO, USA) assay, as described elsewhere. To summarize, the cells were seeded in triplicates in 96-well Corning plates (IGR39, MDA-MB-231, Panc-1 and PPC1: 4 × 10^3 cells/well; HF: 5 × 10^3 cells/well). The cells were treated with 100 μM of tested compounds after 24 h of incubation. After 72 h, the MTT reagent was added and the formazan crystals that had formed were dissolved in DMSO (Sigma-Aldrich Co., St. Louis, MO, USA). The absorbance was determined with a multidetection microplate reader at 570 and 630 nm.
(§7) The compound serial dilutions ranging from 50 µM to 1.56 µM were introduced to the cells. The Hill equation was used to calculate the EC50 value, or the concentration of a compound that results in a 50% reduction in the metabolic activity of cells.

[5] = Ferric reducing antioxidant power (FRAP) assay
Excerpt: The ferric reducing antioxidant power (FRAP) assay was used to evaluate the antioxidant potential of new compounds 2–17. Antioxidant assays are based on determining reduction power reactions (e.g., reduction Fe^3+ to Fe^2+) or scavenging free radicals (DPPH, ABTS). The FRAP assay is based on the method of single electron transfer (SET), measuring the reduction in the complex of ferric ions (Fe^3+)-ligand to the blue ferrous complex (Fe^2+). This method uses 2,4,6-tripyridyl-s-triazine (TPTZ) as the linking ligand to the iron. The antioxidant activity of the synthesized compounds was compared with that of the well-known antioxidant protocatechuic acid. […] PCA is a building block for pharmaceuticals and is widely used to produce many medicinal products such as veratridine (sodium channel inactivation inhibitor), erlotinib (antineoplastic), Picatin II (treatment of hepatitis B), itopride hydrochloride (gastrointestinal motility drug). PCA can also cause the induction of apoptosis of human leukemia cells. Moreover, the antioxidant activity of PCA is based on the reduction in free radical formation via the up-regulation of genes encoding enzymes with neutralizing activities.
Antioxidant activity was determined as an increase in absorbance at 593 nm, and the results were expressed as of Fe^2+ μmol/L and in relation to antioxidants, and protocatechuic acid, as positive control. The FRAP reagent contained 2.5 mL of 10 mM TPTZ solution in 40 mM HCl as well as 2.5 mL of FeCl3 (20 mM) and 25 mL of acetate buffer (0.3 M, pH = 3.6). Then, 100 μL of analyzed compounds (20 mM) were mixed with 3 mL of the FRAP reagent. The absorbance of the reaction mixture was measured spectrophotometrically at 593 nm using a UV-1280 UV-VIS spectrophotometer (Shimadzu Corporation, Kyoto, Japan). To compose the calibration curve, five concentrations of FeSO4·7H2O (5, 10, 15, 20, 25 μM) were used, and the absorbance was measured as a sample solution.

[6] = tested on: tested cancer cell lines (IGR39, PPC-1, MDA-MB-231, Panc-1); assay: MTT cell viability assay, statements on the tested cancer cell lines together; format: cell-based, human; settings: Homo sapiens; against IGR39 and PPC-1 cell lines
Protocol: as §6, §7

[7] = tested on: IGR39 cell migration; assay: 'Wound healing' migration assay, IGR39; format: cell-based, human; settings: 48 h of incubation; control 'wound' completely closed
Protocol: as §4

[8] = tested on: human pancreatic carcinoma Panc-1 cell line; assay: MTT cell viability assay, Panc-1; format: cell-based
Excerpt: as §5, §6, §7

[9] = tested on: prostate carcinoma PPC-1 cell line; assay: MTT cell viability assay, prostate carcinoma PPC-1; format: cell-based, human
Excerpt: as §5, §6, §7

[10] = tested on: human melanoma IGR39 cell line; assay: MTT cell viability assay, melanoma IGR39; format: cell-based; settings: for effect on cell viability compared among the cell lines: 100 µM; for effect on cell viability compared among the cell lines / EC50: 72 h, MTT; for EC50: Homo sapiens, IGR-39, IGR39; for selectivity towards cancer cells compared to fibroblasts: IGR39 (melanoma) vs fibroblasts
Excerpt: as §5, §6, §7

[11] = tested on: Panc-1 cell migration; assay: 'Wound healing' migration assay, Panc-1; format: cell-based, human; settings: 72 h of incubation
Protocol: as §4

[12] = tested on: PPC-1 spheroids (cancer cells with fibroblasts 1:1); assay: 3D culture: PPC-1 spheroid size and viability (WST-1); format: cell-based, human; settings: 5 and 10 µM, 8 days
Protocol: as §1, §2, §3

| SMILES | EC50 [4] | EC50 [6] | EC50 [10] | melting point | effect on spheroid viability compared to the control ([2]; WST-1, end of experiment) | effect on cell viability compared among the cell lines [10] | selectivity towards cancer cells compared to fibroblasts [10] | effect on spheroid growth / size [2] | effect on spheroid growth / size [12] | further results |
| --- | --- | --- | --- | --- | --- | --- | --- | --- | --- | --- |
| CN(C)/N=N/c1[nH]cnc1C(N)=O [dacarbazine] |  |  |  |  |  |  |  |  |  | concentration that inhibits melanoma cell proliferation [1]: 25 to 100 µM |
| O=C(NN=Cc1ccc([N+](=O)[O-])s1)C1CC(=O)N(c2ccc(Nc3ccccc3)cc2)C1 (stereo not drawn) [Compound 13, N′-((5-nitrothiophen-2-yl)methylene)-5-oxo-1-(4-(phenylamino)phenyl)pyrrolidine-3-carbohydrazide] | 5.1 ± 0.8 µM | 2.5 to 20.2 µM | 2.5 ± 0.46 µM | 235 to 236 °C | statistically significant effect | strongest effect on melanoma cells | 2.8 |  |  | 'wound' area compared to the control (times larger) [3]: ~ 24 times; cell viability compared to the control (inhibited up to) ([4]; 100 µM): ~ 9%; FRAP reducing power (Fe^2+) ([5]; absorbance at 593 nm): 103.95 µmol/L; 'wound' area [7]: 15.8 ± 8.8%; cell viability compared to the control (inhibited up to) ([8]; 100 µM, 72 h, MTT): ~ 9%; EC50 ([8]; Homo sapiens, MTT, 72 h, Panc-1): 5.77 ± 0.8 µM; selectivity towards cancer cells compared to fibroblasts ([8]; Panc-1 vs fibroblasts): 1.2; EC50 ([9]; Homo sapiens, MTT, 72 h, PPC-1): 3.63 ± 0.45 µM; 'wound' area compared to the control (times larger) [11]: 7.5 times |

Now from value to molecule, other results behind:

| EC50 [4] | EC50 [6] | EC50 [10] | melting point | SMILES | effect on spheroid viability compared to the control ([2]; WST-1, end of experiment) | effect on cell viability compared among the cell lines [10] | selectivity towards cancer cells compared to fibroblasts [10] | effect on spheroid growth / size [2] | effect on spheroid growth / size [12] | further results |
| --- | --- | --- | --- | --- | --- | --- | --- | --- | --- | --- |
| 19.8 ± 1.86 µM | 2.5 to 20.2 µM | 10.4 ± 1.35 µM | 238 to 239 °C | O=C(NN=Cc1c[nH]c2ccccc12)C1CC(=O)N(c2ccc(Nc3ccccc3)cc2)C1 (stereo not drawn) [Compound 14, N′-((1H-indol-3-yl)methylene)-5-oxo-1-(4-(phenylamino)phenyl)pyrrolidine-3-carbohydrazide] |  | strongest effect on melanoma cells |  | became somewhat larger | slightly reduced the growth |  |
|  | 2.5 to 20.2 µM |  | 220 to 221 °C | O=C(NN=Cc1ccc(Cl)c(Cl)c1)C1CC(=O)N(c2ccc(Nc3ccccc3)cc2)C1 (stereo not drawn) [Compound 6, N′-(3,4-dichlorobenzylidene)-5-oxo-1-(4-(phenylamino)phenyl)pyrrolidine-3-carbohydrazide] | statistically significant effect | strongest effect on melanoma cells | 2.8 |  |  | effect on cell migration ([3]; higher concentration (5 µM)): inhibited; reducing power activity compared to the control antioxidant ([5]; vs protocatechuic acid): higher than those of known antioxidants used as the controls |
|  | 2.5 to 20.2 µM |  | 223 to 224 °C | O=C(NN=Cc1cc(Cl)ccc1O)C1CC(=O)N(c2ccc(Nc3ccccc3)cc2)C1 (stereo not drawn) [Compound 5, N′-(5-chloro-2-hydroxybenzylidene)-5-oxo-1-(4-(phenylamino)phenyl)pyrrolidine-3-carbohydrazide] | statistically significant effect | strongest effect on melanoma cells |  | did not affect spheroid growth | did not affect spheroid growth | spheroid cell viability (reduced up to) ([2]; WST-1, end of experiment): ~ 75%; selectivity towards cancer cells compared to fibroblasts ([9]; prostate carcinoma vs fibroblasts): 3.6 |
